Literature values, collected in paper PMC9516332 (Frontiers in Oncology, 2022).
Read-outs that look alike come from different tables or passages of the source.

Legend:
[1] = target: panel of 255 wild-type kinases (Homo sapiens, UniProt Q9Y463); settings: kinase DYRK1B, 1 µmol/L single concentration, cited from earlier work
[2] = target: panel of 255 wild-type kinases (Homo sapiens, UniProt P35968); settings: kinase KDR; 1 µmol/L single concentration; ref DOI: 10.1158/1535-7163.MCT-18-0877; cited from earlier work
[3] = target: panel of 255 wild-type kinases (Homo sapiens, UniProt Q9P0L2); settings: MARK1, 1 µmol/L single concentration, cited from earlier work
[4] = target: T1, panel of 255 wild-type kinases (Homo sapiens, UniProt Q12851); settings: kinase MAP4K2, 1 µmol/L single concentration, cited from earlier work
T1 sequence (Q12851 1-820): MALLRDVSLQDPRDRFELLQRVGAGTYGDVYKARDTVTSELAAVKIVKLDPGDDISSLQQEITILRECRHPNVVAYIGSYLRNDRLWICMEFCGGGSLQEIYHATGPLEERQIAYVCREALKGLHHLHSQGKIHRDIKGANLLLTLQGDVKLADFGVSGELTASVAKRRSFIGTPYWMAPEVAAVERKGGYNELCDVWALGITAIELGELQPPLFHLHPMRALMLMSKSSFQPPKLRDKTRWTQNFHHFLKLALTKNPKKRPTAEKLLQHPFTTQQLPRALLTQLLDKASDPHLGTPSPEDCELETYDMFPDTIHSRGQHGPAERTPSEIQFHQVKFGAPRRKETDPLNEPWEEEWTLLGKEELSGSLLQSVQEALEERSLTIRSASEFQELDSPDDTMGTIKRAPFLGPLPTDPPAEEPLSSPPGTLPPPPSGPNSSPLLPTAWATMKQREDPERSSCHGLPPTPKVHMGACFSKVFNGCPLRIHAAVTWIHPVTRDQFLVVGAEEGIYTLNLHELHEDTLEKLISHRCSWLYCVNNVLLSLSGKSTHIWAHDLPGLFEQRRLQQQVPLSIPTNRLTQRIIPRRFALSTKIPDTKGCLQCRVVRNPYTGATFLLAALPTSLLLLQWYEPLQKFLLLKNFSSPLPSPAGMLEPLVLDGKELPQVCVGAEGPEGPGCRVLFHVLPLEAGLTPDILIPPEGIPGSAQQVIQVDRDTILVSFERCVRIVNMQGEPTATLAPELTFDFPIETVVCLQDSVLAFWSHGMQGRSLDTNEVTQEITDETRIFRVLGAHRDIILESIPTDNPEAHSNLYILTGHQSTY

[5] = target: panel of 255 wild-type kinases (Homo sapiens, UniProt Q9UQM7); settings: CaMK2α kinase assay, 1 µmol/L single concentration, cited from earlier work
[6] = target: panel of 255 wild-type kinases (Homo sapiens, UniProt P49840); settings: cited from earlier work
[7] = target: panel of 255 wild-type kinases (Homo sapiens, UniProt P19784); settings: kinase CK2α2/β, 1 µmol/L single concentration, cited from earlier work
[8] = target: T2, panel of 255 wild-type kinases (Homo sapiens, UniProt Q9HBY8); settings: kinase SGK2, 1 µmol/L single concentration, cited from earlier work
T2 sequence (Q9HBY8 1-367): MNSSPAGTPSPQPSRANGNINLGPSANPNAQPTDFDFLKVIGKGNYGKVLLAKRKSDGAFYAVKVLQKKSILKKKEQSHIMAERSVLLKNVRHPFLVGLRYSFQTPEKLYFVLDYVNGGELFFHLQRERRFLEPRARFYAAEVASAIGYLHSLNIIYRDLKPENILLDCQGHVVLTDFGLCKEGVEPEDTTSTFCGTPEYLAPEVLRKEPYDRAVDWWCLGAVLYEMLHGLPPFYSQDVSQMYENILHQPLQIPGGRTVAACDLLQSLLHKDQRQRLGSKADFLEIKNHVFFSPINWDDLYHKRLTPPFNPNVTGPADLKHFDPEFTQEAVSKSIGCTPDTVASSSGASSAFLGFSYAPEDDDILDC

[9] = target: panel of 255 wild-type kinases (Homo sapiens, UniProt P08922); settings: cited from earlier work
[10] = target: panel of 255 wild-type kinases (Homo sapiens, UniProt Q15375); settings: kinase EPHA7, 1 µmol/L single concentration, cited from earlier work
[11] = target: panel of 255 wild-type kinases (Homo sapiens, UniProt Q9UK32); settings: kinase RSK4, 1 µmol/L single concentration, cited from earlier work
[12] = target: panel of 255 wild-type kinases (Homo sapiens, UniProt P49674); settings: kinase CK1ε, 1 µmol/L single concentration, cited from earlier work
[13] = target: panel of 255 wild-type kinases (Homo sapiens, UniProt Q9HBH9); settings: MNK2, 1 µmol/L single concentration, cited from earlier work
[14] = target: panel of 255 wild-type kinases (Homo sapiens, UniProt P68400); settings: kinase CK2α1/β, 1 µmol/L single concentration, cited from earlier work
[15] = target: panel of 255 wild-type kinases (Homo sapiens, UniProt P09619); settings: kinase PDGFRβ, 1 µmol/L single concentration, cited from earlier work
[16] = ref DOI: 10.1158/1535-7163.MCT-18-0877
[17] = kinase GSK3α, 1 µmol/L single concentration, ref DOI: 10.1158/1535-7163.MCT-18-0877
[18] = kinase ROS, 1 µmol/L single concentration, ref DOI: 10.1158/1535-7163.MCT-18-0877
[19] = ref DOI: 10.1371/journal.pone.0092146

## O=C(c1ccc(F)c(F)c1Nc1ccc(I)cc1F)N1CC(O)([C@@H]2CCCCN2)C1 [cobimetinib]
[1]; [16]
  %-inhibition at 1 µmol/L, DYRK1B: 2%
[2]
  %-inhibition at 1 µmol/L, KDR: 13%
[3]; [16]
  %-inhibition, MARK1: -5%
[4]; [16]
  %-inhibition at 1 µmol/L, MAP4K2: -5.57%
[5]; [16]
  %-inhibition CaMK2α: 7%
[6]; [17]
  %-inhibition at 1 µmol/L, GSK3α: 3.42%
[7]; [16]
  %-inhibition at 1 µmol/L, CK2α2/β: -6%
[8]; [16]
  %-inhibition at 1 µmol/L, SGK2: 7%
[9]; [18]
  %-inhibition at 1 µmol/L, ROS: 3%
[10]; [16]
  %-inhibition at 1 µmol/L, EPHA7: 1.75%
[11]; [16]
  %-inhibition at 1 µmol/L, RSK4: 5.52%
[12]; [16]
  %-inhibition at 1 µmol/L, CK1ε: 2.44%
[13]; [16]
  %-inhibition, MNK2: 8%
[14]; [16]
  %-inhibition at 1 µmol/L, CK2α1/β: -9%
[15]; [16]
  %-inhibition at 1 µmol/L, PDGFRβ: 2%

## CO[C@@H]1[C@H](N(C)C(=O)c2ccccc2)C[C@H]2O[C@]1(C)n1c3ccccc3c3c4c(c5c6ccccc6n2c5c31)C(=O)NC4 [midostaurin]
[4]; [16]
  %-inhibition at 1 µmol/L, MAP4K2: 94%
[6]
  %-inhibition at 1 µmol/L, GSK3α: 87%
[7]; [16]
  %-inhibition at 1 µmol/L, CK2α2/β: 2%
[8]; [16]
  %-inhibition at 1 µmol/L, SGK2: -0.775%
[9]
  %-inhibition at 1 µmol/L, ROS: 102%
[10]; [16]
  %-inhibition at 1 µmol/L, EPHA7: 19%
[13]; [16]
  %-inhibition, MNK2: 80%
[14]; [16]
  %-inhibition at 1 µmol/L, CK2α1/β: -5.6%
[15]; [16]
  %-inhibition at 1 µmol/L, PDGFRβ: 100%

## C=CC(=O)N1CCC[C@@H](n2nc(-c3ccc(Oc4ccccc4)cc3)c3c(N)ncnc32)C1 [ibrutinib]
[1]; [16]
  %-inhibition at 1 µmol/L, DYRK1B: 2%
[2]
  %-inhibition at 1 µmol/L, KDR: 84%
[3]; [16]
  %-inhibition, MARK1: 2.46%
[4]; [16]
  %-inhibition at 1 µmol/L, MAP4K2: -4.43%
[5]; [16]
  %-inhibition CaMK2α: -1.35%
[6]; [17]
  %-inhibition at 1 µmol/L, GSK3α: 2.24%
[7]; [16]
  %-inhibition at 1 µmol/L, CK2α2/β: -7%
[9]; [18]
  %-inhibition at 1 µmol/L, ROS: 5%
[10]; [16]
  %-inhibition at 1 µmol/L, EPHA7: 7%
[11]; [16]
  %-inhibition at 1 µmol/L, RSK4: 5.52%
[12]; [16]
  %-inhibition at 1 µmol/L, CK1ε: 50%
[13]; [16]
  %-inhibition, MNK2: 20%
[14]; [16]
  %-inhibition at 1 µmol/L, CK2α1/β: -11%
[15]; [16]
  %-inhibition at 1 µmol/L, PDGFRβ: 55%

## C[C@@H](Oc1cc(-c2cnn(C3CCNCC3)c2)cnc1N)c1c(Cl)ccc(F)c1Cl [crizotinib]
[1]; [19]
  %-inhibition at 1 µmol/L, DYRK1B: -3%
[3]; [19]
  %-inhibition, MARK1: 27%
[5]; [19]
  %-inhibition CaMK2α: -2.77%
[6]; kinase GSK3α, 1 µmol/L single concentration, ref DOI: 10.1371/journal.pone.0092146
  %-inhibition at 1 µmol/L, GSK3α: -2.56%
[7]; [19]
  %-inhibition at 1 µmol/L, CK2α2/β: -10%
[8]; [19]
  %-inhibition at 1 µmol/L, SGK2: -2.31%
[11]; [19]
  %-inhibition at 1 µmol/L, RSK4: -1.58%
[12]; [19]
  %-inhibition at 1 µmol/L, CK1ε: 4%
[13]; [19]
  %-inhibition, MNK2: 2%
[14]; [19]
  %-inhibition at 1 µmol/L, CK2α1/β: -6.39%
[15]; [19]
  %-inhibition at 1 µmol/L, PDGFRβ: 18%

## Cc1cc(Nc2ncc(Cl)c(Nc3ccccc3S(=O)(=O)C(C)C)n2)c(OC(C)C)cc1C1CCNCC1 [ceritinib]
[1]; [16]
  %-inhibition at 1 µmol/L, DYRK1B: 11%
[2]
  %-inhibition at 1 µmol/L, KDR: 58%
[3]; [16]
  %-inhibition, MARK1: 8.55%
[4]; [16]
  %-inhibition at 1 µmol/L, MAP4K2: 7.37%
[5]; [16]
  %-inhibition CaMK2α: 15%
[6]; [17]
  %-inhibition at 1 µmol/L, GSK3α: 15%
[7]; [16]
  %-inhibition at 1 µmol/L, CK2α2/β: -6%
[8]; [16]
  %-inhibition at 1 µmol/L, SGK2: -5.59%
[9]; [18]
  %-inhibition at 1 µmol/L, ROS: 101%
[10]; [16]
  %-inhibition at 1 µmol/L, EPHA7: 4.64%
[11]; [16]
  %-inhibition at 1 µmol/L, RSK4: 83%
[12]; [16]
  %-inhibition at 1 µmol/L, CK1ε: 5%
[13]; [16]
  %-inhibition, MNK2: 76%
[14]; [16]
  %-inhibition at 1 µmol/L, CK2α1/β: -8%
[15]; [16]
  %-inhibition at 1 µmol/L, PDGFRβ: 55%

## CC(C)(C)c1nc(-c2cccc(NS(=O)(=O)c3c(F)cccc3F)c2F)c(-c2ccnc(N)n2)s1 [dabrafenib]
[1]; [19]
  %-inhibition at 1 µmol/L, DYRK1B: 29%
[3]; [19]
  %-inhibition, MARK1: -15%
[4]; [19]
  %-inhibition at 1 µmol/L, MAP4K2: 8%
[5]; [19]
  %-inhibition CaMK2α: -2.14%
[8]; [19]
  %-inhibition at 1 µmol/L, SGK2: -7.58%
[9]; kinase ROS, 1 µmol/L single concentration, ref DOI: 10.1371/journal.pone.0092146
  %-inhibition at 1 µmol/L, ROS: 8.55%
[10]; [19]
  %-inhibition at 1 µmol/L, EPHA7: 13%
[11]; [19]
  %-inhibition at 1 µmol/L, RSK4: 2.2%
[12]; [19]
  %-inhibition at 1 µmol/L, CK1ε: 10%

## C=CC(=O)Nc1cc(Nc2nccc(-c3cn(C)c4ccccc34)n2)c(OC)cc1N(C)CCN(C)C [osimertinib]
[1]; [16]
  %-inhibition at 1 µmol/L, DYRK1B: 5%
[2]
  %-inhibition at 1 µmol/L, KDR: 46%
[3]; [16]
  %-inhibition, MARK1: 19%
[4]; [16]
  %-inhibition at 1 µmol/L, MAP4K2: -0.698%
[5]; [16]
  %-inhibition CaMK2α: 2%
[6]; [17]
  %-inhibition at 1 µmol/L, GSK3α: 15%
[7]; [16]
  %-inhibition at 1 µmol/L, CK2α2/β: 16%
[8]; [16]
  %-inhibition at 1 µmol/L, SGK2: 26%
[9]; [18]
  %-inhibition at 1 µmol/L, ROS: 101%
[10]; [16]
  %-inhibition at 1 µmol/L, EPHA7: 2.35%
[11]; [16]
  %-inhibition at 1 µmol/L, RSK4: 38%
[12]; [16]
  %-inhibition at 1 µmol/L, CK1ε: 18%
[13]; [16]
  %-inhibition, MNK2: 97%
[14]; [16]
  %-inhibition at 1 µmol/L, CK2α1/β: 12%
[15]; [16]
  %-inhibition at 1 µmol/L, PDGFRβ: 87%
